Data from patent US20200392239A1, “USE OF A MULTIMERIC ANTI-DR5 BINDING MOLECULE IN COMBINATION WITH A CHEMOTHERAPEUTIC AGENT FOR TREATING CANCER” (IGM Biosciences, Inc., priority 2018, published 2020).

Columns and labels:
[1] = reason for not progressing in clinical development; cited from earlier work
HCT15 tumor cells = test: HCT15 tumor model in athymic nude mice (IgG resistant colon tumor model); type: in vivo; settings: 3 mg/kg IgM 5 times daily i.v.; compared with 3 mg/kg anti-DR5 IgG and 80 mg/kg Irinotecan
Procedure: Combination therapy with an anti-DR5 IgM antibody and standard of care Irinotecan was assessed in an HCT15 tumor model as follows.
In the first experiment, anti-DR5 IgG, anti-DR5 IgM, and Irinotecan monotherapies were compared. Athymic nude mice were subcutaneously implanted with 1×10^7 HCT15 tumor cells.
When the tumors reached 150-200 mm^3, the animals were dosed intravenously with either vehicle 5 times daily, 3 mg/kg of anti-DR5 IgM 5 times daily, 80 mg/kg of Irinotecan (Sigma I1406) 3 times within the first week, or the combined anti-DR5 IgM and Irinotecan dosing regimens.

CC1(C)CCC(c2ccc(Cl)cc2)=C(CN2CCN(c3ccc(C(=O)NS(=O)(=O)c4ccc(N[C@H](CCN5CCOCC5)CSc5ccccc5)c(S(=O)(=O)C(F)(F)F)c4)cc3)CC2)C1 [ABT-263, 4-(4-{[2-(4-Chlorophenyl)-5,5-dimethyl-1-cyclohexen-1-yl]methyl}-1-piperazinyl)-N-[(4-{[(2R)-4-(4-morpholinyl)-1-(phenylsulfany)-2-butanyl]amino}-3-[(trifluoromethyl)sulfonyl]phenyl)sulfonyl]benzamide]
side effects [1]: dose-limiting side effects

CN(C)CC[C@H](CSc1ccccc1)Nc1ccc(S(=O)(=O)NC(=O)c2ccc(N3CCN(Cc4ccccc4-c4ccc(Cl)cc4)CC3)cc2)cc1[N+](=O)[O-] [ABT-737, 4-{4-[(4′-Chloro-2-biphenylyl)methyl]-1-piperazinyl}-N-[(4-{[(2R)-4-(dimethylamino)-1-(phenylsulfanyl)-2-butanyl]amino}-3-nitrophenyl)sulfonyl]benzamide]
bioavailability [1]: low
solubility [1]: low

B1: anti-DR5 IgM Mab #2: anti-DR5 IgM comprising VH and VL SEQ ID NO: 5 and SEQ ID NO: 6, constructed as in US 2018-0009897 (antibody, V domains shown)
VH: QVQLQESGPGLVKPSQTLSLTCTVSGGSISSGDYFWSWIRQLPGKGLECIGHIHNSGTTYYNPSLKSRVTISVDTSKKQFSLRLSSVTAADTAVYYCARDRGGDYYYGMDVWGQGTTVTVSS
VL: EIVLTQSPGTLSLSPGERATLSCRASQGISRSYLAWYQQKPGQAPSLLIYGASSRATGIPDRFSGSGSGTDFTLTISRLEPEDFAVYYCQQFGSSPWTFGQGTKVEIK
modifications: IgM constant regions
efficacy of monotherapies (tumor volume, overall survival) (HCT15 tumor cells): most effective
